One data set relates to rgRSV224 virus. The data set is described as follows: microbe, parasite or virus in culture. Type of data set: cell-based, respiratory syncytial virus (RSV). To be noted: human respiratory syncytial virus, HeLa, 72 h, read-out: WT activity EC50. On the procedure:
(§1) Black 96-well clear-bottom microtiter plates (Corning, Amsterdam, The Netherlands) were filled in duplicate using a customized robot system with serial 4-fold dilutions of compound in a final volume of 50 μl culture medium [RPMI medium without phenol red, 10% FBS, 0.04% gentamycin (50 mg/mL) and 0.5% DMSO]. Then, 100 μl of a HeLa cell suspension (5×10^4 cells/mL) in culture medium was added to each well followed by the addition of 50 μl rgRSV224 (MOI=0.02) virus in culture medium using a multidrop dispenser (Thermo Scientific, Erembodegem, Belgium). rgRSV224 virus is an engineered virus that includes an additional GFP gene (Hallak et al, 2000) and was in-licensed from the NIH (Bethesda, Md., USA). Medium, virus- and mock-infected controls were included in each test. Cells were incubated at 37° C. in a 5% CO2 atmosphere. Three days post-virus exposure, viral replication was quantified by measuring GFP expression in the cells by a MSM laser microscope (Tibotec, Beerse, Belgium). The EC50 was defined as the 50% inhibitory concentration for GFP expression. In parallel, compounds were incubated for three days in a set of white 96-well microtitier plates (Corning) and the cytotoxicity of compounds in HeLa cells was determined by measuring the ATP content of the cells using the ATPlite kit (PerkinElmer, Zaventem, Belgium) according to the manufacturer's instructions. The CC50 was defined as the 50% concentration for cytotoxicity.

A short description of data set [1]: Cytotoxicity in HeLa cells, ATP content (ATPlite kit). Type of data set: cell-based. To be noted: human, Table 1, three days incubation, read-out: Toxicity CC50. The protocol: as §1

pEC50: −log10 of the molar value.

The pEC50 is −log10 of the EC50, conventionally taken in molar units. Usually CC50 stands for the concentration that lowers cell viability or growth by half. With `COc1ccc2c(cc(Cn3c(=O)n(C4CC4)c4ccncc43)n2CCCCO)n1` [Compound P6, 1-Cyclopropyl-3-{[1-(4-hydroxybutyl)-5-methoxy-1H-pyrrolo[3,2-b]pyridin-2-yl]methyl}-1,3-dihydro-2H-imidazo[4,5-c]pyridin-2-one], in the data set with rgRSV224 virus, the negative logarithm of the EC50 (pEC50) was 6.66. In data set [1], the cytotoxic concentration (CC50) at 3 days was > 9.84 µM.
The like results for `CC(C)CCn1c(Cn2c(=O)n(C3CC3)c3ccncc32)cc2cccnc21` [Compound P10, 1-Cyclopropyl-3-{[1-(3-methylbutyl)-1H-pyrrolo[2,3-b]pyridin-2-yl]methyl}-1,3-dihydro-2H-imidazo[4,5-c]pyridin-2-one] were, in that order, < 4.01 and > 98.4 µM.
The like results for `O=c1n(Cc2cc3cnccc3n2CCCCO)c2cnccc2n1C1CC1` [Compound P1, 1-Cyclopropyl-3-{[1-(4-hydroxybutyl)-1H-pyrrolo[3,2-c]pyridin-2-yl]methyl}-1,3-dihydro-2H-imidazo[4,5-c]pyridin-2-one] were, in that order, 8.98 and > 98.4 µM.
The corresponding values for `O=c1n(Cc2cc3nc(O)ccc3n2CCCCO)c2cnccc2n1C1CC1` [Compound P8, 1-Cyclopropyl-3-{[5-hydroxy-1-(4-hydroxybutyl)-1H-pyrrolo[3,2-b]pyridin-2-yl]methyl}-1,3-dihydro-2H-imidazo[4,5-c]pyridin-2-one] are 5.07 and > 9.84 µM.
